# Reference: US20100267561A1, “HERBICIDAL PYRIDAZINONE DERIVATIVES” (priority 2007, published 2010)
# Tests used:
# Experiment in all cases: Test B pre-/postemergence plant response
# Format in all cases: in vivo
# Conditions in all cases: Preemergence
# [1] = system: blackgrass (Alopecurus myosuroides)
# In short: (§1)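 Visual scoring from 0 (no effect) to 100 (complete control) against untreated controls was done 13 to 15 days after greenhouse treatment. Chemicals were formulated in a surfactant-containing non-phytotoxic solvent and applied to soil preemergence or to 1- to 4-leaf (2-18 cm) plants postemergence.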
# [2] = system: catchweed bedstraw (Galium aparine)
# In short: as §1
# [3] = system: cocklebur (Xanthium strumarium)
# In short: as §1
# [4] = system: common (oilseed) sunflower (Helianthus annuus)
# In short: as §1
# [5] = system: common ragweed (Ambrosia elation)
# In short: as §1
# [6] = system: giant foxtail (Setaria faberii)
# In short: as §1
# [7] = system: goosegrass (Eleusine indica)
# In short: as §1
# [8] = system: johnsongrass (Sorghum halepense)
# In short: as §1
# [9] = system: lambsquarters (Chenopodium album)
# In short: as §1
# [10] = system: large crabgrass (Digitaria sanguinalis)
# In short: as §1
# [11] = system: wheat (Triticum aestivum)
# In short: as §1
# [12] = system: wild oat (Avena fatua)
# In short: as §1
# [13] = system: yellow nutsedge (Cyperus esculentus)
# In short: as §1
smiles,measurement,setting,value
"Cc1cn(-c2ccc(Cl)cc2)nc1-c1c(O)cnn(C)c1=O [Compound 30, 4-[1-(4-chlorophenyl)-4-methyl-1H-pyrazol-3-yl]-5-hydroxy-2-methyl-3(2H)-pyridazinone]",pest or weed control at 16 g/ha,"[1]; Alopecurus myosuroides, pre-emergence, 16 g ai/ha, scale 0 to 100 (0 no effect, 100 complete control), read-out: Plant response rating, Blackgrass",60%
same,pest or weed control at 31 g/ha,"[1]; Alopecurus myosuroides, pre-emergence, 31 g ai/ha, 0 to 100 scale, 0 no effect, 100 complete control, read-out: Plant response rating, Blackgrass",100%
same,pest or weed control at 62 g/ha,"[1]; Alopecurus myosuroides, pre-emergence, 62 g ai/ha, scale 0 to 100, read-out: Plant response rating, Blackgrass",100%
same,Blackgrass plant response rating,"[1]; 8 g ai/ha, scale 0 to 100",0
same,pest or weed control at 16 g/ha,"[2]; Galium aparine, pre-emergence, 16 g ai/ha, scale 0 to 100 (0 no effect, 100 complete control), read-out: Plant response rating, Galium",0%
same,pest or weed control at 31 g/ha,"[2]; Galium aparine, pre-emergence, 31 g ai/ha, 0 to 100 scale, 0 no effect, 100 complete control, read-out: Plant response rating, Galium",0%
same,pest or weed control at 62 g/ha,"[2]; Galium aparine, pre-emergence, 62 g ai/ha, scale 0 to 100, read-out: Plant response rating, Galium",0%
same,Galium plant response rating,"[2]; 8 g ai/ha, scale 0 to 100",0
same,Cocklebur plant response rating,"[3]; 8 g ai/ha, scale 0 to 100",0
same,pest or weed control at 16 g/ha,"[3]; Xanthium strumarium, pre-emergence, 16 g ai/ha, scale 0 to 100 (0 no effect, 100 complete control), read-out: Plant response rating, Cocklebur",0%
same,pest or weed control at 31 g/ha,"[3]; Xanthium strumarium, pre-emergence, 31 g ai/ha, 0 to 100 scale, 0 no effect, 100 complete control, read-out: Plant response rating, Cocklebur",0%
same,pest or weed control at 62 g/ha,"[3]; Xanthium strumarium, pre-emergence, 62 g ai/ha, scale 0 to 100, read-out: Plant response rating, Cocklebur",0%
same,pest or weed control at 16 g/ha,"[4]; Helianthus annuus, pre-emergence, 16 g ai/ha, scale 0 to 100 (0 no effect, 100 complete control), read-out: Plant response rating, Sunflower",0%
same,pest or weed control at 31 g/ha,"[4]; Helianthus annuus, pre-emergence, 31 g ai/ha, 0 to 100 scale, 0 no effect, 100 complete control, read-out: Plant response rating, Sunflower",0%
same,pest or weed control at 62 g/ha,"[4]; Helianthus annuus, pre-emergence, 62 g ai/ha, scale 0 to 100, read-out: Plant response rating, Sunflower",0%
same,Sunflower plant response rating,"[4]; 8 g ai/ha, scale 0 to 100",0
same,pest or weed control at 16 g/ha,"[5]; Ambrosia, pre-emergence, 16 g ai/ha, scale 0 to 100 (0 no effect, 100 complete control), read-out: Plant response rating, Ragweed",0%
same,pest or weed control at 31 g/ha,"[5]; Ambrosia, pre-emergence, 31 g ai/ha, 0 to 100 scale, 0 no effect, 100 complete control, read-out: Plant response rating, Ragweed",0%
same,pest or weed control at 62 g/ha,"[5]; Ambrosia, pre-emergence, 62 g ai/ha, scale 0 to 100, read-out: Plant response rating, Ragweed",0%
same,Ragweed plant response rating,"[5]; 8 g ai/ha, scale 0 to 100",0
same,"Foxtail, Giant plant response rating","[6]; 8 g ai/ha, scale 0 to 100",60
same,pest or weed control at 16 g/ha,"[6]; Setaria faberi, pre-emergence, 16 g ai/ha, scale 0 to 100 (0 no effect, 100 complete control), read-out: Plant response rating, Foxtail, Giant",98%
same,pest or weed control at 31 g/ha,"[6]; Setaria faberi, pre-emergence, 31 g ai/ha, 0 to 100 scale, 0 no effect, 100 complete control, read-out: Plant response rating, Foxtail, Giant",100%
same,pest or weed control at 62 g/ha,"[6]; Setaria faberi, pre-emergence, 62 g ai/ha, scale 0 to 100, read-out: Plant response rating, Foxtail, Giant",100%
same,pest or weed control at 16 g/ha,"[7]; Eleusine indica, pre-emergence, 16 g ai/ha, scale 0 to 100 (0 no effect, 100 complete control), read-out: Plant response rating, Goosegrass",80%
same,pest or weed control at 31 g/ha,"[7]; Eleusine indica, pre-emergence, 31 g ai/ha, 0 to 100 scale, 0 no effect, 100 complete control, read-out: Plant response rating, Goosegrass",100%
same,pest or weed control at 62 g/ha,"[7]; Eleusine indica, pre-emergence, 62 g ai/ha, scale 0 to 100, read-out: Plant response rating, Goosegrass",100%
same,Goosegrass plant response rating,"[7]; 8 g ai/ha, scale 0 to 100",80
same,Johnsongrass plant response rating,"[8]; 8 g ai/ha, scale 0 to 100",0
same,pest or weed control at 16 g/ha,"[8]; Sorghum halepense, pre-emergence, 16 g ai/ha, scale 0 to 100 (0 no effect, 100 complete control), read-out: Plant response rating, Johnsongrass",50%
same,pest or weed control at 31 g/ha,"[8]; Sorghum halepense, pre-emergence, 31 g ai/ha, 0 to 100 scale, 0 no effect, 100 complete control, read-out: Plant response rating, Johnsongrass",50%
same,pest or weed control at 62 g/ha,"[8]; Sorghum halepense, pre-emergence, 62 g ai/ha, scale 0 to 100, read-out: Plant response rating, Johnsongrass",98%
same,pest or weed control at 16 g/ha,"[9]; Chenopodium album, pre-emergence, 16 g ai/ha, scale 0 to 100 (0 no effect, 100 complete control), read-out: Plant response rating, Lambsquarters",0%
same,pest or weed control at 31 g/ha,"[9]; Chenopodium album, pre-emergence, 31 g ai/ha, 0 to 100 scale, 0 no effect, 100 complete control, read-out: Plant response rating, Lambsquarters",0%
same,pest or weed control at 62 g/ha,"[9]; Chenopodium album, pre-emergence, 62 g ai/ha, scale 0 to 100, read-out: Plant response rating, Lambsquarters",0%
same,Lambsquarters plant response rating,"[9]; 8 g ai/ha, scale 0 to 100",0
same,pest or weed control at 16 g/ha,"[10]; Digitaria sanguinalis, pre-emergence, 16 g ai/ha, scale 0 to 100 (0 no effect, 100 complete control), read-out: Plant response rating, Crabgrass, Large",90%
same,pest or weed control at 31 g/ha,"[10]; Digitaria sanguinalis, pre-emergence, 31 g ai/ha, 0 to 100 scale, 0 no effect, 100 complete control, read-out: Plant response rating, Crabgrass, Large",100%
same,pest or weed control at 62 g/ha,"[10]; Digitaria sanguinalis, pre-emergence, 62 g ai/ha, scale 0 to 100, read-out: Plant response rating, Crabgrass, Large",100%
same,"Crabgrass, Large plant response rating","[10]; 8 g ai/ha, scale 0 to 100",80
same,Wheat plant response rating,"[11]; 8 g ai/ha, scale 0 to 100",0
same,plant injury at 16 g/ha,"[11]; Triticum aestivum, pre-emergence, 16 g ai/ha, scale 0 to 100 (0 no effect, 100 complete control), read-out: Plant response rating, Wheat",0%
same,plant injury at 31 g/ha,"[11]; Triticum aestivum, pre-emergence, 31 g ai/ha, 0 to 100 scale, 0 no effect, 100 complete control, read-out: Plant response rating, Wheat",0%
same,plant injury at 62 g/ha,"[11]; Triticum aestivum, pre-emergence, 62 g ai/ha, scale 0 to 100, read-out: Plant response rating, Wheat",10%
same,pest or weed control at 16 g/ha,"[12]; Avena fatua, pre-emergence, 16 g ai/ha, scale 0 to 100 (0 no effect, 100 complete control), read-out: Plant response rating, Oat, Wild",50%
same,pest or weed control at 31 g/ha,"[12]; Avena fatua, pre-emergence, 31 g ai/ha, 0 to 100 scale, 0 no effect, 100 complete control, read-out: Plant response rating, Oat, Wild",50%
same,pest or weed control at 62 g/ha,"[12]; Avena fatua, pre-emergence, 62 g ai/ha, scale 0 to 100, read-out: Plant response rating, Oat, Wild",80%
same,"Oat, Wild plant response rating","[12]; 8 g ai/ha, scale 0 to 100",50
same,pest or weed control at 16 g/ha,"[13]; Cyperus, pre-emergence, 16 g ai/ha, scale 0 to 100 (0 no effect, 100 complete control), read-out: Plant response rating, Nutsedge, Yellow",0%
same,pest or weed control at 31 g/ha,"[13]; Cyperus, pre-emergence, 31 g ai/ha, 0 to 100 scale, 0 no effect, 100 complete control, read-out: Plant response rating, Nutsedge, Yellow",0%
same,pest or weed control at 62 g/ha,"[13]; Cyperus, pre-emergence, 62 g ai/ha, scale 0 to 100, read-out: Plant response rating, Nutsedge, Yellow",0%
same,"Nutsedge, Yellow plant response rating","[13]; 8 g ai/ha, scale 0 to 100",0
